Data from patent US10213506B2, “Targeting immunotherapy for amyloidosis” (UNIVERSITY OF TENNESSEE RESEARCH FOUNDATION, priority 2014, dated 2019).

Tests used:
mAb clones = experiment: Capture of biotinylated negative control peptides by adsorbed mAbs; assay type: binding, murine; settings: 100 ng/well
Method: More particularly, 96-well ELISA microplates were coated overnight with the indicated mAbs (500 ng/well), the wells were blocked with PBS/BSA solution before addition of biotinylated p5+14 peptide (100 ng/well). Biotinylated peptides, p5R and p31G (aka p5G) were used as a negative control. Following a wash step, detection of captured peptide was achieved by addition of europium-conjugated streptavidin as described above.

BSA-blocked wells = BSA-blocked wells (Bos taurus, UniProt P02769); experiment: p66 and 11-1F4 on BSA-blocked wells without fibrils; assay type: binding; settings: no fibrils
Chain of BSA-blocked wells (P02769 25-607): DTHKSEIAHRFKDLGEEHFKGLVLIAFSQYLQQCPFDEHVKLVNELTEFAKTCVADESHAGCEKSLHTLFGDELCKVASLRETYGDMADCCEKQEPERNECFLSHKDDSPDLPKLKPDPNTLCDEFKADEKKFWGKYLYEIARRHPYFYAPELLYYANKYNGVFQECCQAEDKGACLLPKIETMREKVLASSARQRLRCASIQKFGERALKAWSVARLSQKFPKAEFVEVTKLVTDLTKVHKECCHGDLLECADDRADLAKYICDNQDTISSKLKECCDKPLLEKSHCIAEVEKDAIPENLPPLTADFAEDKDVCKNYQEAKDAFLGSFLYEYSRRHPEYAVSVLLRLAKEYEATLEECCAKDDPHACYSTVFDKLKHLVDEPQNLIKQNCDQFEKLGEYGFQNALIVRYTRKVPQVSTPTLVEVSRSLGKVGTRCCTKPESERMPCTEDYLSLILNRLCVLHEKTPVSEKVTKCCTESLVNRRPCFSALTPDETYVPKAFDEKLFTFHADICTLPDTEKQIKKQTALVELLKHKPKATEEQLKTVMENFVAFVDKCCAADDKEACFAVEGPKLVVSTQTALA

[1] = tested on: synthetic and naturally-occurring amyloid samples; experiment: 125I-peptide pull-down assay; assay type: binding
Method: To evaluate the binding of p66 and p5+14 to synthetic and naturally-occurring amyloid, peptides p66 or p5+14 were radiolabeled with iodine-125 (I-125, ^125I) using oxidation with chloramine T (1 mg/ml in water freshly made. Free 1-125 was removed from the reaction mixture by size exclusion chromatography using a Sephadex G-25 solid phase and a 0.1% (w/v) gelatin in PBS mobile phase. Fractions of ˜250 μl were collected and the radioactivity in each measured using a gamma counter (Packard Cobra II auto-gamma counter). Peptide fractions with peak radioactivity were pooled and used for the “pull-down” assays.
For the pull down assay, ^125I-labeled peptide binding to murine: (m) AA and wild type (WT) liver homogenates (25 μl); rVλ6Wil (AL), Aβ(1-40) and islet amyloid polypeptide (IAPP) synthetic fibrils (25 μg), and; transthyretin-associated (ATTR), ALκ4-Cab and ALλ1-Ship human amyloid extracts (50 μg). The ^125I-peptides were prepared in PBST (0.15 M NaCl) or PBST with 1 M NaCl. Ten μl (˜5 ng, ˜100,000 counts per min [cpm]) of the ^125I-peptide solution was added to each test sample in a 200 μl volume. The reaction mixtures were rotated for 1 h at RT, then centrifuged twice at 16,000× g for 10 min. After each step the supernatants were removed and collected in test tubes. The pellets, obtained following the second spin were resuspended in PBST. The radioactivity in both the supernatant and pellet samples were measured using a Packard Cobra II auto-gamma counter. The bound peptide, expressed as % total was calculated according to: Bound peptide(% total)=(Pellet cpm)/(Pellet cpm+Supernatant cpm)

AA amyloid deposits = experiment: In vivo binding of 125I-p66 in mice with systemic AA amyloidosis
Method: (§1) Systemic visceral AA amyloidosis was induced in H2-L^d-huIL-6 Tg Balb/c transgenic mice that constitutively express the human interleukin-6 transgene, by iv injection of 10 μg of purified, splenic AA amyloid (amyloid enhancing factor; AEF) in 100 μL of sterile phosphate-buffered saline (PBS). Peptide p66 was evaluated in mice at 4-6 wk post AEF injection when amyloid load was significant.
(§2) Imaging was performed using WT or AA amyloid mice (n=3) that were injected with ˜5 μg of ^125I-p66, 125 μCi in the lateral tail vein. After the appropriate uptake time (data for 4 and 72 h pi shown), mice were euthanized by isoflurane inhalation overdose. SPECT images were acquired using an Inveon trimodality imaging platform (Siemens Preclinical Solution, Knoxville, Tenn.) running Inveon Acquisition Workplace software (ver. 2.0). Low energy (^125I; 25-45 keV) gamma photons were acquired at each of 60, 16-sec projections with 90 mm of bed travel. A 1 mm-diameter, 5-pinhole (Mouse Whole Body) collimator was used at 30 mm from the center of the field of view. Data were reconstructed post hoc onto an 88×88×312 matrix with isotropic 0.50 mm voxels using a 3D ordered subset expectation maximization (OSEM) algorithm (8 iterations; 6 subsets).
CT data were acquired using an x-ray voltage biased to 80 kVp with a […] anode current, with 4×4 binning. A 225 msec exposure was used, and 360, 1-degree projections were collected. The data were reconstructed using an implementation of the Feldkamp filtered back-projection algorithm onto a 512×512×1296 matrix with isotropic 0.106 mm voxels. […]
(§3) Samples of liver, spleen, pancreas, kidneys, small and large intestines, stomach and heart were harvested post mortem from every mouse undergoing imaging with ^125I-p66. A sample of each was placed into a tared, plastic vial, weighed and the ^125I radioactivity measured using an automated Wizard 3 gamma counter (1480 Wallac Gamma Counter, Perkin Elmer). The biodistribution data were expressed as % injected dose/g tissue (% ID/g). […]

[2] = In vivo binding of 125I-p66 in healthy WT mice; settings: 125I-labelled peptide iv
Method: as §2
as §3, with “ID/g). In addition, samples of each tissue were fixed in 10% buffered-formalin for 24 h and embedded in paraffin for autoradiography.” for “ID/g).”

AA amyloid = experiment: In vivo pre-targeting of 125I-11-1F4 to systemic AA amyloid; settings: AA mice, ~400 μg unlabeled peptide, 24 h post injection of 11-1F4
Method: as §1, with “p66 pre-targeting of ^125I-11-1F4” for “p66”, “3-4” for “4-6”, “modest.” for “significant.”
(§4) Three cohorts of 3 mice, each received ˜400 μg of unlabeled peptide p66, and a second group of 3 cohorts were given peptide p5+14 as a control. Twenty-four hours after the peptide injection all mice were administered ˜150 μCi (˜20 μg) of ^125I-11-1F4 IV in the lateral tail vein. One group of p66 mice (n=3) and one group of p5+14 control mice (n=3) were euthanized at 24, 48 and 72 h post injection of 11-1F4 mAb and the organs harvested at necropsy for fixation, followed by microautoradiographic and immunohistochemical analyses.
For autoradiography, 6-μm-thick sections were cut from formalin-fixed, paraffin-embedded blocks, containing tissues from mice that had received ^125I-p66. The sections were placed on Plus microscope slides (Fisher Scientific), dipped in NTB-2 emulsion (Eastman Kodak), stored in the dark, and developed after a 4 day exposure. Each section was counterstained with hematoxylin and eosin. […]

liver macrophages = experiment: Liver macrophage staining (Iba-1) after in vivo pre-targeting; settings: AA mice pre-injected with the peptide, 72 h post injection of 11-1F4 mAb
Method: as §1, with “p66 pre-targeting of ^125I-11-1F4” for “p66”, “3-4” for “4-6”, “modest.” for “significant.”
as §4
The presence of macrophages was detected by staining with mAb Iba-1 (1:8000 diln) followed by addition of biotinylated rabbit anti-mouse secondary reagent (Vector Rabbit Elite kit). The slides were developed, as described above. All tissue sections were examined using a Leica DM500 light microscope fitted with cross-polarizing filters (for Congo red). Digital microscopic images were acquired using a cooled CCD camera (SPOT; Diagnostic Instruments).

human ATTR amyloid = biological target: T1, human ATTR amyloid (Homo sapiens, UniProt P02766); experiment: Pre-targeting immunohistochemistry on ATTR-laden tissue sections; assay type: binding; settings: biotinylated peptide without mAb; compared with Congo red
T1 construct: human ATTR-laden formalin-fixed paraffin embedded tissue sections; from tissue
Method: The pre-targeting efficacy of peptide p5+14 in conjunction with mAb clones 4, 5, 12, or 13 was further evaluated using human ATTR-laden formalin-fixed paraffin embedded tissue sections. More particularly, six micrometer-thick sections, cut from formalin-fixed, paraffin embedded human transthyretin (TTR) amyloid-laden tissue, were subjected to antigen retrieval by incubation with CitraPlus (BioGenex, San Ramon, Calif.) for 30 min at 90° C. Peptide p5+14 was added to the tissue at ˜3 μg/mL (30× molar excess over mAb) and incubated overnight at 4° C. Unbound reagent was removed by washing in PBST for 30 min. Tissues (with or without p5+14) were immunostained with a 3 μg/mL solution of biotinylated anti-peptide mAb (clones 4, 5, 12, or 13). Slides were developed by addition of streptavidin-HRP (Vectastain Elite ABC kit, Vector Labs) followed by 3,3′-diaminobezidene (Vector Labs).
By way of positive control, a biotinylated-p5+14 peptide (without mAb) was used to directly stain TTR amyloid in this tissue (red arrows, below), as described above.
To confirm the presence and distribution of amyloid in the tissue a consecutive slide was stained with Congo red. Briefly, tissues were incubated in Congo red solution (0.8% w/v Congo red, 0.2% KOH w/v in 80% ethanol) for 1 h at RT. Sections were then washed in water and counterstained by suspending in Mayer's hematoxylin for 2 min. […]

Row | Substance | Capture of biotinylated peptide by adsorbed mAb clones (mAb clones) | Peptide binding to BSA-blocked wells in the absence of fibrils (BSA-blocked wells) | Binding of 125I-peptide to amyloid samples (pull-down) ([1]; 0.15 M NaCl) | Binding of 125I-peptide to amyloid samples (pull-down) ([1]; 1.0 M NaCl) | Binding to amyloid deposits in vivo (micro-autoradiography vs Congo red) (AA amyloid deposits; 125I-labelled peptide iv, mice with systemic AA amyloidosis) | Reactivity with amyloid in vivo, notably liver, spleen, pancreas and intestines (SPECT/CT imaging and tissue biodistribution) (AA amyloid deposits; 125I-labelled peptide, AA mice) | Time post injection at which liver amyloid could be visualized by SPECT imaging (AA amyloid deposits; 125I-labelled peptide, AA mice) | Binding to healthy tissues in vivo (micro-autoradiography) [2] | Peptide associated with AA amyloid in tissues (immunohistochemistry with clone 12-3) (AA amyloid) | Liver macrophage infiltration (Iba-1 staining) (liver macrophages) | Direct staining of ATTR amyloid by biotinylated peptide (human ATTR amyloid)
1 | p5G: SEQ ID NO: 3: GAQGAQAGQAGQAQGAQGAQAGQAGQ (GAQGAQAGQAGQAQGAQGAQAGQAGQ; Peptide p5G) | not captured |  |  |  |  |  |  |  |  |  | 
2 | p66: SEQ ID NO: 18: p5+14 fused via linker SVTVVT to 11-1F4 12-mer epitope KHYAAFPENLLI (KAQKAQAKQAKQAQKAQKAQAKQAKQAQKAQKAQAKQAKQSVTVVTKHYAAFPENLLI; Fusion protein between p66 and antibody epitope sequence 11-1F4) |  | no peptide bound | bound equally well | bound equally well | specifically bound the amyloid deposits | confirmed | at least 72 h | did not bind to any tissue | associated specifically with AA amyloid | induced macrophage infiltration into the liver and clustering of macrophages around amyloid deposits to a greater degree | 
3 | p5R: SEQ ID NO: 2: RAQRAQARQARQAQRAQRAQARQARQ (RAQRAQARQARQAQRAQRAQARQARQ; Peptide p5R) | not captured |  |  |  |  |  |  |  |  |  | 
4 | p5+14: SEQ ID NO: 17: KAQKAQAKQAKQAQKAQKAQAKQAKQAQKAQKAQAKQAKQ (KAQKAQAKQAKQAQKAQKAQAKQAKQAQKAQKAQAKQAKQ; Peptide p5+14) |  |  | bound equally well | bound equally well |  |  |  |  | p5+14-coated AA amyloid in all tissues evaluated | induced macrophage infiltration | co-localizes with amyloid deposits
